In ChEMBL document CHEMBL1201862, “PubChem BioAssay data set” (2004):
Activity calls are given as the source filed them.

Tests used:
Insulin-degrading enzyme = molecular target: T1, Insulin-degrading enzyme (Homo sapiens, UniProt P14735); assay: Dose Response: Fluorescence polarization-based cell-based high throughput dose response assay for inhibitors of insulin-degrading enzyme (IDE). [Related pubchem assays: 434962 (Primary screen (IDE inhibitors in singlicate)), 449730 (Counterscreen (Cytotoxicity in triplicate)), 435028 (Confirmation (IDE inhibitors in triplicate)), 434984 (Summary …; assay type: functional
T1 sequence (P14735 whole entry): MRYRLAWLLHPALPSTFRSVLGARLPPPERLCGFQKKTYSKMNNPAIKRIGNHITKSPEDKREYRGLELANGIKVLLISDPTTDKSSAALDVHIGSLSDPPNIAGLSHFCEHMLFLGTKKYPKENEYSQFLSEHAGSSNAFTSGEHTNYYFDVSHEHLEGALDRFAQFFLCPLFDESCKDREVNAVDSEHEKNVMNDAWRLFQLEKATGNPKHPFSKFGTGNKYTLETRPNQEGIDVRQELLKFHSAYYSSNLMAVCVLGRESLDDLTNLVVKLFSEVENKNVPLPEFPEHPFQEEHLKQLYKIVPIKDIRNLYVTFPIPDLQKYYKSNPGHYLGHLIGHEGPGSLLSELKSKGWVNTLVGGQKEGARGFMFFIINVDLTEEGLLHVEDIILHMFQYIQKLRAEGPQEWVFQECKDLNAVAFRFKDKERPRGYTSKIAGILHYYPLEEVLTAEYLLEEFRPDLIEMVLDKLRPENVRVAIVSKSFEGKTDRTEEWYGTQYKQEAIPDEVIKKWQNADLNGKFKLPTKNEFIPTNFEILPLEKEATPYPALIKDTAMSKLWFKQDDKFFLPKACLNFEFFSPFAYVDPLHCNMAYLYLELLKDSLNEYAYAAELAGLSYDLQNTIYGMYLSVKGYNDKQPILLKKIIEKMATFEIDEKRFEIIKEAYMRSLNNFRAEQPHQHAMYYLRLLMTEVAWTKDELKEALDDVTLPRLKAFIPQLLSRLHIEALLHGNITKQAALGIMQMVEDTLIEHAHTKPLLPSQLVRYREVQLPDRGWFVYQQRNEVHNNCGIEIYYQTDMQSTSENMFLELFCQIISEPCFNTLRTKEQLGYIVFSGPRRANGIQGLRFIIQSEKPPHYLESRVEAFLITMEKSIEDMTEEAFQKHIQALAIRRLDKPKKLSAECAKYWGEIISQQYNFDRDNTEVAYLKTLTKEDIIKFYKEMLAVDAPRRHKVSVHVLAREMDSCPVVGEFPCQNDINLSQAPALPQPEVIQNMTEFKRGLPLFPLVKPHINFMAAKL

[1] = molecular target: T2, RNA-binding protein pos-1 (Caenorhabditis elegans, UniProt G5EF15); assay: disruptors of C. elegans POS-1 RNA interaction – biochemical, fluorescence polarization, dose response (AID 1964);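 further: purified POS-1 fused to maltose binding protein made in E. coli; potency of compounds blocking POS-1 binding to fluorescent RNA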
T2 sequence (G5EF15 whole entry): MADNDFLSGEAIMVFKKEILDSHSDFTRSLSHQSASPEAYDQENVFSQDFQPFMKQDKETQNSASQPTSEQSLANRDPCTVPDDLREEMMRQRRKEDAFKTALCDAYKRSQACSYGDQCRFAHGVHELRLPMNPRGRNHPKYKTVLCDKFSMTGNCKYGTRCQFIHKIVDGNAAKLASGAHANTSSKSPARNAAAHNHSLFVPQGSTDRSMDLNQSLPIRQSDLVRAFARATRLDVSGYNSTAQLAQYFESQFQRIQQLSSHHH

[2] = Counterscreen for IDE inhibitors: Luminescence-based cell-based high throughput dose response assay to identify compounds that are cytotoxic to HEK cells. [Related pubchem assays: 434962 (Primary screen (IDE inhibitors in singlicate)), 449730 (Counterscreen (Cytotoxicity in triplicate)), 435028 (Confirmation (IDE inhibitors in triplicate)) …; assay type: functional; conditions: HEK293
[3] = molecular target: T3, Neuropeptide Y receptor type 2 (Homo sapiens, UniProt P49146); assay: Fluorescence-based cell-based high-throughput dose response assay for agonists of NPY-Y2. [Related pubchem assays: 1703 (Screening assay (CNGC inhibitors).), 1359 (Screening assay (NPY-Y2 potentiators or agonists).), 1304 (Screening assay (NPY-Y1 potentiators or agonists).), 1710 (Screening assay (NPY-Y2 agonists).), 1791 (Summary AID.)]; assay type: functional
T3 sequence (P49146 whole entry): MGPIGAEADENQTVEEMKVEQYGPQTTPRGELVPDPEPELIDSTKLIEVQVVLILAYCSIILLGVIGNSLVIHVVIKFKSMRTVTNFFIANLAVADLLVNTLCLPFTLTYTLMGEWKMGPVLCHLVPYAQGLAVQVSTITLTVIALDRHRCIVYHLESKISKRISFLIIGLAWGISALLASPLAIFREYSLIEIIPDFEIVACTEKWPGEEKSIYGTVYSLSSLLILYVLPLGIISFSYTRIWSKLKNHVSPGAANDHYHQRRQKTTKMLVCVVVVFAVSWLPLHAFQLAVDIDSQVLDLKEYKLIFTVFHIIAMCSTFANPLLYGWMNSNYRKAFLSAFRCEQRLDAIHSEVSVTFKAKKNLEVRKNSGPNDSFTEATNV

HEK293 = assay: Fluorescence-based counterscreen for potentiators or agonists of NPY-Y2: cell-based high-throughput dose response assay to identify inhibitors of cyclic nucleotide gated ion channel (CNGC) activity. In this assay, the parental HEK293 cell line transfected with a cyclic-nucleotide gated ion channel (CNGC)-based cAMP sensor is used to measure inhibition of isoproterenol-induced CNGC activity by test compound.; assay type: functional; conditions: Homo sapiens;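 further: stimulus is 1 µM isoproterenol at EC100 plus PDE inhibitor Ro 20-1724 at 25 µM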
[4] = molecular target: T4, Neuropeptide Y receptor type 1 (Homo sapiens, UniProt P25929); assay: Fluorescence-based counterscreen for agonists of NPY-Y2: cell-based high-throughput dose response assay for agonists of NPY-Y1.; assay type: functional
T4 sequence (P25929 whole entry): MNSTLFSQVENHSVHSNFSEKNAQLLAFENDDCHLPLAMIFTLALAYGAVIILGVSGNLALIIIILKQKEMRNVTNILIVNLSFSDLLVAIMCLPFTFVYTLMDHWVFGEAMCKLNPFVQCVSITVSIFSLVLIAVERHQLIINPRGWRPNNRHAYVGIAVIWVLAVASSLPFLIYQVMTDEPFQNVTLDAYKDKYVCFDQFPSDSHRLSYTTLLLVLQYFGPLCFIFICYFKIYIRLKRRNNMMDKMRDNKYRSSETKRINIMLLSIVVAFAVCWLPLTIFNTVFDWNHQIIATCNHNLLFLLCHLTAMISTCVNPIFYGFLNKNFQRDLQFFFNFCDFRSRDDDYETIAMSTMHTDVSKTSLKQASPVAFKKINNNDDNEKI

[5] = molecular target: Acyl-homoserine lactone acylase PvdQ (Pseudomonas aeruginosa (strain LESB58), UniProt Q9I194); assay: PvdQ acylase enzyme activity blockers – biochemical, fluorescence, plate reader and imaging, cherry-picks, dose response (AID 493231)
Sequence of Acyl-homoserine lactone acylase PvdQ (Q9I194 24-193 limits assumed): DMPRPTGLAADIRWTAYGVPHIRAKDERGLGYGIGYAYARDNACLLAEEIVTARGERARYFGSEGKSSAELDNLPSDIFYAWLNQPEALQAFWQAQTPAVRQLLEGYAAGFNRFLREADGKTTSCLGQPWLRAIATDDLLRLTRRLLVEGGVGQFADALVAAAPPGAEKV
Sequence of Acyl-homoserine lactone acylase PvdQ (Q9I194 217-762 limits assumed): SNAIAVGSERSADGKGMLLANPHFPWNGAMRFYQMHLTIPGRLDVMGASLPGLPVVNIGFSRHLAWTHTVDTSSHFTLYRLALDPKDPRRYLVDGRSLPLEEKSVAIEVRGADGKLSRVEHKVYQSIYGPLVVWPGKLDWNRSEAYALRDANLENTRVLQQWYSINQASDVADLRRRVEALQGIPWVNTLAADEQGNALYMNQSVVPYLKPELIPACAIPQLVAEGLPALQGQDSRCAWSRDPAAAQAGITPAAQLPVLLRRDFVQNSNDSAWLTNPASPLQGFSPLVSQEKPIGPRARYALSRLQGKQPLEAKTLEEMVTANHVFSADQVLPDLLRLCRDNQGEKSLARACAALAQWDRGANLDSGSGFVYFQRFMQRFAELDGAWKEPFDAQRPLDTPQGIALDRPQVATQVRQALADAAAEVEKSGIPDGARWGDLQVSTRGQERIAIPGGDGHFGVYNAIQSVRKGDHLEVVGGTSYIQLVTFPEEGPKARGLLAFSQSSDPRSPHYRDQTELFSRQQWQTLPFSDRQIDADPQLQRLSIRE

Vero [6] = assay: cells; assay type: functional, cell-based; conditions: Chlorocebus sabaeus
[7] = molecular target: Induced myeloid leukemia cell differentiation protein Mcl-1 (Homo sapiens, UniProt Q07820); assay type: functional
Sequence of Induced myeloid leukemia cell differentiation protein Mcl-1 (Q07820 whole entry): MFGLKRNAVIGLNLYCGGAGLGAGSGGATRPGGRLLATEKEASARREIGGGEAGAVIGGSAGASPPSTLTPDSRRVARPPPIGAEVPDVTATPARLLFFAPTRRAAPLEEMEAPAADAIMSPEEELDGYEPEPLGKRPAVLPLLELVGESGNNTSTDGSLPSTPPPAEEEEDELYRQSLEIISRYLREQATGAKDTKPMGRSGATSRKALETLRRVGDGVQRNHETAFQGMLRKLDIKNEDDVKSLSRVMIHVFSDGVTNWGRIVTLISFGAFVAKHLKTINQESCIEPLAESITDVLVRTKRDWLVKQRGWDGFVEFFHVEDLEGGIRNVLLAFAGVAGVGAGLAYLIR

NS3 = NS3 (Hepatitis C virus, UniProt A3EZJ3); assay: PubChem AID 2173; design: species or system Hepacivirus hominis
Sequence of NS3 (A3EZJ3 whole entry): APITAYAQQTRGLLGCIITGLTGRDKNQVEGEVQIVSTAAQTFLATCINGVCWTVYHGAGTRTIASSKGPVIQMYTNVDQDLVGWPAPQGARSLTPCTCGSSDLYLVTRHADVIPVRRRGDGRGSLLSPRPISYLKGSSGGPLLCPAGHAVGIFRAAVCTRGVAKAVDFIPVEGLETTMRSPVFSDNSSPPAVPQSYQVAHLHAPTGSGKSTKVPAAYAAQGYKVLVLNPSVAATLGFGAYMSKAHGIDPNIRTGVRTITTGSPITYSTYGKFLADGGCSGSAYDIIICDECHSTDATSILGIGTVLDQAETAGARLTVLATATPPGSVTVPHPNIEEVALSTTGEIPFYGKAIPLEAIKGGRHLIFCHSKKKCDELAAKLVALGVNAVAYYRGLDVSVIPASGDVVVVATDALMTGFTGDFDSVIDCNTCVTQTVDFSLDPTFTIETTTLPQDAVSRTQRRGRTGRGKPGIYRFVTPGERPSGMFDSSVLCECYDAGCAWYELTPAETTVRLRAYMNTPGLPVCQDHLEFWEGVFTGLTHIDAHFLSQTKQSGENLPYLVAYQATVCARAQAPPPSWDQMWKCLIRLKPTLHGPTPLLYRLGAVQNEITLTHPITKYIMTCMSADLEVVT

Vero [8] = assay: cells; assay type: functional; conditions: Chlorocebus sabaeus
[9] = HEK-293T cell viability reduction – luminescence, B-cell screen hits, cytotoxicity control for BCR NF-kB inhibitor project, dose response (AID 489021); assay type: functional, cell-based;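 further: HEK-293T cells carrying an NF-kB luciferase reporter; cells exposed to compound for about 14 hours before viability readout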
[10] = A cytotoxicity screen of small molecule inhibitors of the PhoP region in Salmonella typhi identified in the primary screen. [Related pubchem assays: 1850, 1864, 1985 ]; assay type: functional
[11] = molecular target: Lysosomal acid glucosylceramidase (Homo sapiens, UniProt P04062); assay: Dose response cell-based high throughput screening assay to identify enhancers of beta-glucosidase activity. [Related pubchem assays: 784 ]; assay type: functional
Sequence of Lysosomal acid glucosylceramidase (P04062 whole entry): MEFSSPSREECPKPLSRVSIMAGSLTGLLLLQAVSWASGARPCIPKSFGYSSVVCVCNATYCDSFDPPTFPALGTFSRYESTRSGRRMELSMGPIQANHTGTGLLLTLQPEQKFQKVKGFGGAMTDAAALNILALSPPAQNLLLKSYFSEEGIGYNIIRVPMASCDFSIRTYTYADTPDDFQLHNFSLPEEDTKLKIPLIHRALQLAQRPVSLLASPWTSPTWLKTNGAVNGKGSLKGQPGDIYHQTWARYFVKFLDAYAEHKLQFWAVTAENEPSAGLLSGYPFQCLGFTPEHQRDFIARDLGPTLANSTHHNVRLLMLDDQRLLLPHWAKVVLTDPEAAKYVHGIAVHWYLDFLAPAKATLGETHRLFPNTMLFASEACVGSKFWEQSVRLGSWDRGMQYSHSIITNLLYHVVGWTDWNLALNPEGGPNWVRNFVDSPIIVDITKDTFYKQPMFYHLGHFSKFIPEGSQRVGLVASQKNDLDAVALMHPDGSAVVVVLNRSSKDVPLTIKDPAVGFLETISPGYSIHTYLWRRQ

CCN(CC)c1ccc(/C=C2\C(=O)NC(=S)N(c3ccc(OC)cc3OC)C2=O)o1
IC50 (Insulin-degrading enzyme): > 6.21 µM (active) | EC50 [1]: > 150 µM (inconclusive) | IC50 [2]: > 55.6 µM (not active)

N#Cc1c(Cl)nsc1NN
EC50 [3]: 9.25 µM (active) | EC50 (HEK293): 9.97 µM (active) | EC50 [4]: 7.05 µM (active)

CCOC(=O)/C(C#N)=C/c1ccc(SC)cc1
AC50 [5]: 18.1 µM (active)

CNc1ccc(Br)cc(C(=O)/C=C/c2cccc(OC)c2)c1=O
IC50 (Vero [6]): 7.82 µM (active) | IC50 [7]: 1.92 µM (active) | IC50 (NS3): 8.97 µM (active) | CC50 (Vero [8]): 12.7 µM (active)

O=C(C1CCC1)N1CCN(c2ccc(Cl)cc2)CC1
AC50 [5]: 13.5 µM (active)

Cc1cc(C)c2nc(NC(=O)C3CSC4(C)CCC(=O)N34)sc2c1 (stereo not given)
IC50 [9]: > 80 µM (inactive)

O=C(N/N=C/c1cccs1)c1ccc2[nH]cnc2c1
EC50 [10]: > 50 µM (active)

CCOc1ccc(-c2noc(-c3ccncc3)n2)cc1OCC
EC50 [11]: > 10 µM (not active)
